Our source for the IC50 values is patent US6703421B1, “Methods of using phenylmethylbenzoquinone and hydroquinone compounds for treatment of myocarditis, dilated cardiomyopathy and heart failure” (Daiichi Suntory Pharma Co., Ltd., priority 1999, dated 2004).

The first experiment relates to NF-κB. The experiment can be described thus: NF-κB luciferase reporter assay in A549/NF-κBLuc cells. Format: cell-based, human. The note with it: A549/NF-κBLuc, IL-1β (1 ng/ml) for 4 hours, luciferase activity; read-out: IC50 (μM) IL-1 stimulation. The protocol: Using lipofectamine (Lifetech Oriental K. K., Tokyo) according to the conventional method, human lung cancer cell line A549 cells (ATCC catalog no. CCL185), which are known to express hiNOS by cytokine stimulation, were co-transfected with pNFκB-Luc, which are plasmid controlled by a NF-κB binding consensus sequence, and pSV2neo (Clontech, U.S.A.), and then A549/NF-κBLuc, the cell that has stably introduced pNFκB-Luc, was selected by adding G418 sulfate (1 mg/ml, Lifetech Oriental K. K.) to the culture medium.
The luciferase activity was measured using the Luciferase Assay System (Promega, U.S.A.).
A general note: A reporter such as luciferase makes a cellular process visible.
Consider “2-[5-Methylthieno[2,3-d]pyrimidine-4-yl]aminoindan-5-carboxylic Acid Morpholinamide [Prod. Ex. 221]”, for which the IC50 (in general, the concentration that gives 50% inhibition) amounted to 0.051 µM.

The experiment is the same for the next values; noted with them: A549/NF-κBLuc, TNF-α (500 ng/ml) for 4 hours, luciferase activity; read-out: IC50 (μM) TNF stimulation.
Turning to “2-[5-Methylthieno[2,3-d]pyrimidine-4-yl]aminoindan-5-carboxylic Acid Morpholinamide [Prod. Ex. 221]”, the IC50 is 0.089 µM.

Still in this experiment, the particulars now being: Homo sapiens; A549/NF-κBLuc, IL-1β (1 ng/ml) for 4 hours, luciferase activity; read-out: IC50 (μM) IL-1 stimulation.
On to `COC1=C(OC)C(=O)C(Cc2ccc(CCC(=O)N3CCOCC3)cc2)=C(C)C1=O` [Prod. Ex. 3, N-[3-[4-(5,6-Dimethoxy-3-methyl-1,4-benzoquinon-2-ylmethyl)phenyl]propionyl]morpholine], for which the IC50 came to 29 µM. Still for that read-out and setting: with `COC1=C(OC)C(=O)C(Cc2ccc(CCC(=O)NC(C)C)cc2)=C(C)C1=O` [Prod. Ex. 9, N-[3-[4-(5,6-Dimethoxy-3-methyl-1,4-benzoquinon-2-ylmethyl)phenyl]propionyl]isopropylamine] the figure was 3 µM. Take `COC1=C(OC)C(=O)C(Cc2ccc(C(=O)NC(C)C)cc2)=C(C)C1=O` [Prod. Ex. 23, N-[4-(5,6-Dimethoxy-3-methyl-1,4-benzoquinon-2-ylmethyl)benzoyl]isopropylamine]: the IC50 turned out to be 42 µM. The same measure, in the same setting: with `COC1=C(OC)C(=O)C(Cc2ccc(CCCC(=O)N3CCOCC3)cc2)=C(C)C1=O` [Prod. Ex. 27, N-[4-[4-(5,6-Dimethoxy-3-methyl-1,4-benzoquinon-2-ylmethyl)phenyl]butanoyl]morpholine] the figure was 15 µM; with `COC1=C(OC)C(=O)C(Cc2ccc(CCCC(=O)N3CCSCC3)cc2)=C(C)C1=O` [Prod. Ex. 28, N-[4-[4-(5,6-Dimethoxy-3-methyl-1,4-benzoquinon-2-ylmethyl)phenyl]butanoyl]thiomorpholine], 14 µM; with `COC1=C(OC)C(=O)C(Cc2ccc(CCCC(=O)N3CCCCC3)cc2)=C(C)C1=O` [Prod. Ex. 29, N-[4-[4-(5,6-Dimethoxy-3-methyl-1,4-benzoquinon-2-ylmethyl)phenyl]butanoyl]piperidine], 13 µM.

In the case of `COC1=C(OC)C(=O)C(Cc2ccc(CCCC(=O)NC(C)C)cc2)=C(C)C1=O` [Prod. Ex. 30, N-[4-[4-(5,6-Dimethoxy-3-methyl-1,4-benzoquinon-2-ylmethyl)phenyl]butanoyl]isopropylamine], the IC50 is 14 µM. Take `COC1=C(OC)C(=O)C(Cc2cccc(CCC(=O)N3CCCCC3)c2)=C(C)C1=O` [Prod. Ex. 32, N-[3-[3-(5,6-Dimethoxy-3-methyl-1,4-benzoquinon-2-ylmethyl)phenyl]propionyl]piperidine]: the IC50 stood at 24 µM.

Consider `COC1=C(OC)C(=O)C(Cc2cccc(CCC(=O)N3CCSCC3)c2)=C(C)C1=O` [Prod. Ex. 33, N-[3-[3-(5,6-Dimethoxy-3-methyl-1,4-benzoquinon-2-ylmethyl)phenyl]propionyl]thiomorpholine], for which the IC50 is 28 µM. Turning to `COC1=C(OC)C(=O)C(Cc2cccc(CCC(=O)N3CCOCC3)c2)=C(C)C1=O` [Prod. Ex. 34, N-[3-[3-(5,6-Dimethoxy-3-methyl-1,4-benzoquinon-2-ylmethyl)phenyl]propionyl]morpholine], the IC50 was 29 µM. On the same count and under the same terms, as for `COC1=C(OC)C(=O)C(Cc2cccc(CCC(=O)NC(C)C)c2)=C(C)C1=O` [Prod. Ex. 35, N-[3-[3-(5,6-Dimethoxy-3-methyl-1,4-benzoquinon-2-ylmethyl)phenyl]propionyl]isopropylamine], the figure is 8 µM; as for `COC1=C(OC)C(=O)C(Cc2cccc(/C=C/C(=O)N3CCCCC3)c2)=C(C)C1=O` [Prod. Ex. 37, N-[3-[3-(5,6-Dimethoxy-3-methyl-1,4-benzoquinon-2-ylmethyl)phenyl]acryloyl]piperidine], 49 µM; as for `COC1=C(OC)C(=O)C(Cc2cccc(/C=C/C(=O)NC(C)C)c2)=C(C)C1=O` [Prod. Ex. 39, N-[3-[3-(5,6-Dimethoxy-3-methyl-1,4-benzoquinon-2-ylmethyl)phenyl]acryloyl]isopropylamine], 39 µM.

In the case of `COC1=C(OC)C(=O)C(Cc2cccc(C(=O)NC(C)C)c2)=C(C)C1=O` [Prod. Ex. 42, N-[3-(5,6-Dimethoxy-3-methyl-1,4-benzoquinon-2-ylmethyl)benzoyl]isopropylamine], the 50% inhibitory concentration (IC50) was found to be 22 µM.

For `COC1=C(OC)C(=O)C(Cc2cccc(C(=O)N3CCCCC3)c2)=C(C)C1=O` [Prod. Ex. 43, N-[3-(5,6-Dimethoxy-3-methyl-1,4-benzoquinon-2-ylmethyl)benzoyl]piperidine], the IC50 was found to be 21 µM. As for `COC1=C(OC)C(=O)C(Cc2cccc(C(=O)N3CCSCC3)c2)=C(C)C1=O` [Prod. Ex. 45, N-[3-(5,6-Dimethoxy-3-methyl-1,4-benzoquinon-2-ylmethyl)benzoyl]thiomorpholine], the IC50 worked out at 17 µM. As for `CC1=C(C)C(=O)C(Cc2ccc(CCC(=O)NC(C)C)cc2)=C(C)C1=O` [Prod. Ex. 46], the IC50 was found to be 17 µM.

For the molecule `CC1=C(C)C(=O)C(Cc2ccc(CCC(=O)N3CCCCC3)cc2)=C(C)C1=O` [Prod. Ex. 47, N-[3-[4-(3,5,6-Trimethyl-1,4-benzoquinon-2-ylmethyl)phenyl]propionyl]piperidine], the IC50 was found to be 21 µM. For the molecule `CC1=C(C)C(=O)C(Cc2ccc(CCC(=O)N3CCOCC3)cc2)=C(C)C1=O` [Prod. Ex. 48, N-[3-[4-(3,5,6-Trimethyl-1,4-benzoquinon-2-ylmethyl)phenyl]propionyl]morpholine], the IC50 stood at 18 µM. As to `CC1=C(C)C(=O)C(Cc2cccc(CCC(=O)NC(C)C)c2)=C(C)C1=O` [Prod. Ex. 49, N-[3-[3-(3,5,6-Trimethyl-1,4-benzoquinon-2-ylmethyl)phenyl]propionyl]isopropylamine], the IC50 amounted to 28 µM. Same read-out and setting: with `CC1=C(C)C(=O)C(Cc2cccc(CCC(=O)N3CCCCC3)c2)=C(C)C1=O` [Prod. Ex. 50, N-[3-[3-(3,5,6-Trimethyl-1,4-benzoquinon-2-ylmethyl)phenyl]propionyl]piperidine] the figure was 16 µM; with `CC1=C(C)C(=O)C(Cc2cccc(CCC(=O)N3CCOCC3)c2)=C(C)C1=O` [Prod. Ex. 51, N-[3-[3-(3,5,6-Trimethyl-1,4-benzoquinon-2-ylmethyl)phenyl]propionyl]morpholine], 18 µM. Take `COC1=C(OC)C(=O)C(Cc2ccc(CC(=O)N3CCOCC3)cc2)=C(C)C1=O` [Prod. Ex. 53, N-[4-(5,6-Dimethoxy-3-methyl-1,4-benzoquinon-2-ylmethyl)phenylacetyl]morpholine]: the IC50 was 8 µM. The same measure, in the same setting: with `COC1=C(OC)C(=O)C(Cc2ccc(CC(=O)N3CCCCC3)cc2)=C(C)C1=O` [Prod. Ex. 54, N-[4-(5,6-Dimethoxy-3-methyl-1,4-benzoquinon-2-ylmethyl)phenylacetyl]piperidine] the figure was 5 µM. Still for that read-out and setting: as for `COC1=C(OC)C(=O)C(Cc2ccc(CC(=O)N3CCSCC3)cc2)=C(C)C1=O` [Prod. Ex. 55, N-[4-(5,6-Dimethoxy-3-methyl-1,4-benzoquinon-2-ylmethyl)phenylacetyl]thiomorpholine], the figure is 7 µM; as for `COC1=C(OC)C(=O)C(Cc2ccc(CC(=O)NC(C)C)cc2)=C(C)C1=O` [Prod. Ex. 56, N-[4-(5,6-Dimethoxy-3-methyl-1,4-benzoquinon-2-ylmethyl)phenylacetyl]isopropylamine], 5 µM.

With `COC1=C(OC)C(=O)C(Cc2cccc(CC(=O)N3CCCCC3)c2)=C(C)C1=O` [Prod. Ex. 58, N-[3-(5,6-Dimethoxy-3-methyl-1,4-benzoquinon-2-ylmethyl)phenylacetyl]piperidine], the IC50 is 13 µM.

The experiment is the same for the next values; noted with them: Homo sapiens; A549/NF-κBLuc, TNF-α (500 ng/ml) for 4 hours, luciferase activity; read-out: IC50 (μM) TNF stimulation.
Turning to `COC1=C(OC)C(=O)C(Cc2ccc(CCC(=O)NC(C)C)cc2)=C(C)C1=O` [Prod. Ex. 9, N-[3-[4-(5,6-Dimethoxy-3-methyl-1,4-benzoquinon-2-ylmethyl)phenyl]propionyl]isopropylamine], the IC50 came out at 4 µM.
